From patent US20240390382A1, “METHOD FOR TREATING CANCER” (THE CHILDREN'S MEDICAL CENTER CORPORATION, priority 2021, published 2024)
“Also recorded” adds a separate entry of the source.

How the values were obtained:
[1] = system: key leading edge genes (MLLT3 regulated) in CTR9 edited cells; assay: qRT-PCR analysis of key leading edge genes in CTR9 edited cells; assay type: cell-based, human; conditions: two independent guides, inhibitor at the concentration of IC50, vs DMSO
Method: HEK293T cells are cultured in DMEM supplemented with 10% FBS and 1× penicillin/streptomycin. Human CD34 HSPCs were purchased from Fred Hutchinson Cancer Institute and cultured in StemSpan serum free culture medium (StemCell Technologies) supplemented with 1×CC100, 2 mM L-glutamine, 100 ng/mL TPO, 1×UM171 and 1× penicillin/streptomycin. For RNP based CRISPR editing of CD34+HSPCs, chemically synthesized gRNA and Cas9 protein were mixed and set at room temperature for 10 mins to allow the formation of deliverable RNP. The assembled RNP complexes were then delivered into CD34+HSPCs by Lonza 4D Nucleofector with program DZ-100. 48-72 hrs after nucleofection, cells were harvested for genomic DNA and the edited region was PCR amplified and the editing efficiency was analyzed by the ICE analysis from Synthego. Edited CD34+HSPCs were allowed to expand in the culture medium and harvested twice at day 3 and day 6 post-nucleofection. Harvested cells were washed in cold PBS and stained by HSC phenotyping antibody cocktail, which is composed of Brilliant Violet 421 anti-CD34, APC-H7 anti-CD45RA, PE-Cy7 anti-CD90, BB700 anti-CD133, PE anti-EPCR and APC anti-ITGA3 in ice cold FACS buffer (PBS+2% FBS) at 1:60 for 30 minutes in ice. Stained cells were then analyzed by BD LSRII flow cytometer. […]
RNA from HSPCs was harvested by Qiagen RNeasy kit and quantified by nanodrop. […]

CTR9 edited CD34+HSPCs = assay: HSC phenotyping (flow cytometry) of CTR9 edited CD34+ HSPCs, chemical rescue experiment; assay type: cell-based, human; conditions: inhibitor used at the concentration of IC50, vs DMSO
Method: HEK293T cells are cultured in DMEM supplemented with 10% FBS and 1× penicillin/streptomycin. Human CD34 HSPCs were purchased from Fred Hutchinson Cancer Institute and cultured in StemSpan serum free culture medium (StemCell Technologies) supplemented with 1×CC100, 2 mM L-glutamine, 100 ng/mL TPO, 1×UM171 and 1× penicillin/streptomycin. For RNP based CRISPR editing of CD34+HSPCs, chemically synthesized gRNA and Cas9 protein were mixed and set at room temperature for 10 mins to allow the formation of deliverable RNP. The assembled RNP complexes were then delivered into CD34+HSPCs by Lonza 4D Nucleofector with program DZ-100. 48-72 hrs after nucleofection, cells were harvested for genomic DNA and the edited region was PCR amplified and the editing efficiency was analyzed by the ICE analysis from Synthego. Edited CD34+HSPCs were allowed to expand in the culture medium and harvested twice at day 3 and day 6 post-nucleofection. Harvested cells were washed in cold PBS and stained by HSC phenotyping antibody cocktail, which is composed of Brilliant Violet 421 anti-CD34, APC-H7 anti-CD45RA, PE-Cy7 anti-CD90, BB700 anti-CD133, PE anti-EPCR and APC anti-ITGA3 in ice cold FACS buffer (PBS+2% FBS) at 1:60 for 30 minutes in ice. Stained cells were then analyzed by BD LSRII flow cytometer. For the chemical rescue experiment, CDK9 inhibitors (LDCO000067 and AZD4573) and the YEATS domain inhibitor of ENL/ILLT3 (SR-0813) were used at the concentration of IC50.

O=C(NC1CCC1)c1ccc2nc(-c3cccc(NS(=O)(=O)NCCN4CCCCC4)c3)cn2c1 [SR-0813]
expression of key upregulated target genes (leading edge genes) [1]: downregulated many of the key upregulated target genes | CTR9-perturbation-mediated HSC expansion (partial loss of CTR9) (CTR9 edited CD34+HSPCs; CTR9 edited CD34+ HSPCs): rescues HSC expansion phenotype; also recorded: completely suppressed | impact on the bulk HSPC population (CD34+CD45RA-) (CTR9 edited CD34+HSPCs; primary human HSPCs): without a major impact on the bulk HSPC population | phenotypic LT- and ST-HSC expansion (CTR9 edited CD34+HSPCs; primary human HSPCs): suppression of phenotypic LT- and ST-HSC expansion occurred
